From publication PMC10730845, “Endoxifen downregulates AKT phosphorylation through protein kinase C beta 1 inhibition in ERα+ breast cancer” (NPJ Breast Cancer, 2023)

Tests used:
PKCβ1 in MCF7AC1 cells [1] = test: Immunoblot of PKCβ1 and pPKCβ1^Ser661, MCF7AC1; format: cell-based, human; details: serum starved; for Effect on PKCβ1 total protein in insulin treated cells: 100 nM insulin 1 h, ENDX 0.01, 0.1, 5 µM, TAM 0.1 µM, ICI 0.1 µM
Procedure: (§1) The ENDX hydrochloride utilized in this study was synthesized in collaboration between Mayo Clinic and National Institute of Health (NIH). Estrogen deprived MCF7AC1 were treated with vehicle control or ENDX (National Cancer Institute) for 24 h. For the phorbol 12-myristate 13-acetate (PMA) (LC Laboratories, #P-1680) experiments, MCF7AC1 cells were maintained in serum-free medium for 24 h prior to pretreatment with vehicle or ENDX for 2 h followed by treatment with 20 or 200 nM PMA for 20 min. For the insulin (Sigma-Aldrich, #I0516) experiments, MCF7AC1 and T47D cells were maintained in serum-free medium for 24 h prior to pretreatment with vehicle control or drugs for 2 h followed by treatment with 100 nM insulin for 1 h.
(§2) Protein lysates were prepared using the RIPA lysis buffer system (ChemCruz #sc-24948) and quantified using the DC^TM Protein Assay reagents (Bio-Rad #5000112). Equal amounts of protein lysates were separated on 10% Criterion gels (Bio-Rad #3450112), transferred to PVDF membranes (Bio-Rad #1620177), blocked in TBST-5% milk and probed with primary antibodies listed in Supplementary Table 5, at the indicated dilutions. Membranes were incubated with HRP-conjugated anti-rabbit (CST #7074) or anti-mouse (CST #7076) secondary antibodies and visualized using chemiluminescent West Pico (Thermo Scientific #34580) or West Femto (Thermo Scientific #34096) reagents and a Li-Cor Odyssey® XF imager. Protein lysates from the MCF7AC1 xenograft model were obtained from a previous study. Quantitation of the protein bands signal intensity was performed using the NIH ImageJ image analysis software (https://imagej.nih.gov/ij///index.html). For the quantitation of the phospho protein levels, we first normalized total protein levels to β-actin loading control and used these values to normalize the phospho protein levels and compared change in protein expression levels relative to vehicle control normalized to 1.0. For the quantitation of total protein levels, we normalized the total protein levels to β-actin and compared change in expression levels relative to vehicle control normalized to 1.0. All blots were processed in parallel and derived from the same experiments. Unprocessed immunoblot images are provided in Supplementary Figs. 9–13.

PKCβ1 in MCF7AC1 cells [2] = test: Immunoblot of PKCβ1 and pPKCβ1^Ser661, MCF7AC1; format: cell-based, human; details: serum starved, 1 µM ENZA 2 h, 200 nM PMA 30 min
[3] = tested on: AKT phosphorylation (pAKT^Ser473, pAKT^Thr308, p-AKT substrates) in MCF7AC1 cells; test: Immunoblot of AKT signaling and PARP cleavage, MCF7AC1; format: cell-based, human; details: for Effect on insulin-stimulated AKT^Ser473 and AKT^Thr308 phosphorylations: 100 nM insulin 1 h, 0.1 µM
Procedure: as §1, with “For the phorbol 12-myristate 13-acetate (PMA) (LC Laboratories, #P-1680) experiments, MCF7AC1 cells were maintained in serum-free medium for 24 h prior to pretreatment with vehicle or ENDX for 2 h followed by treatment with 20 or 200 nM PMA for 20 min.” left out
as §2

[4] = tested on: ERα+/HER2- metastatic breast cancer; details: cited from earlier work
MCF7AC1 cells [5] = test: IncuCyte Annexin V apoptosis assay, MCF7AC1; format: cell-based, human; details: for Effect on apoptosis: CSS medium, 48 h, ENDX 5 µM, TAM 0.1 µM, ICI 0.1 µM
Procedure: (§3) MCF7AC1 and T47D-LTED cells were plated at a density of 2000 cells per well in CSS medium for 24 h. Cells were then co-treated for 48 h with vehicle or drug, IncuCyte Annexin V green reagent (#4642, 1:300), an early-stage apoptosis marker, and IncuCyte NucLight rapid red reagent (#4717, 1:500), a dye that stains all cell nuclei red, in CSS medium. MCF7AC1^caAKT cells were plated at a cell density of 2000 cells per well in CSS medium in the absence or presence of cumate for 48 h and then co-treated with vehicle or drug, Annexin V green and NucLight rapid red reagents in the absence or presence of cumate for an additional 48 h in CSS medium.

[6] = tested on: AKT phosphorylation in T47D cells; test: Immunoblot of AKT phosphorylation, serum starved T47D; format: cell-based, human; details: 0.1 µM
Procedure: as §1
as §2, with “Protein lysates from the MCF7AC1 xenograft model were obtained from a previous study.” left out, “All blots were processed in parallel and derived from the same experiments. Unprocessed immunoblot images are provided in Supplementary Figs. 9–13.” left out

T47D-LTED cells [7] = test: IncuCyte Annexin V apoptosis assay, T47D-LTED; format: cell-based, human; details: CSS medium; 1 and 5 µM, but not 0.1 µM
Procedure: as §3
(§4) Supplementary Figure 6. […] Cell viability is assessed by the crystal violet assay. b, MCF7AC1 cells were co-treated with vehicle control or 0.01, 0.1 and 5 µM MK-2206 and IncuCyte Annexin V green and NucLight rapid red reagents in CSS medi um for 48 hours. […]
Cells were plated at a density of 2000 cells per well. c, MCF7AC1 cells were treated with vehicle control or 0.01, 0.1 and 5 µM MK-2206 in CSS medium for 24 hours. […] Cell viability is assessed by the crystal violet assay. f, Parental T47D and T47D-LTED cells were processed for protein lysates. […] Percentage of cells undergoing apoptosis was calculated as mentioned in b. i, T47D-LTED cells were treated with vehicle control or 0.01, 0.1 and 5 µM MK -2206 in CSS medium for 24 hours . […]

[8] = tested on: AKT^Ser473 phosphorylation in T47D-LTED cells; test: Immunoblot of pAKT^Ser473, T47D-LTED; format: cell-based, human; details: CSS medium, 24 h; 1 and 5 µM, but not 0.1 µM
Procedure: as §2, with “All blots were processed in parallel and derived from the same experiments. Unprocessed immunoblot images are provided in Supplementary Figs. 9–13.” left out

T47D-LTED cells [9] = test: Crystal violet cell viability assay, T47D-LTED; format: cell-based, human; details: CSS medium, six days
Procedure: (§5) Cells were plated at a density of 2000 cells per well. Cell viability of (i) vehicle or drug treated MCF7AC1 and T47D-LTED cells in CSS medium, (ii) siNT or siPKCβ-transfected MCF7AC1 cells in CSS medium and (iii) T47D cells in FBS versus CSS medium were analyzed by crystal violet staining assay after 6 days of treatment or siRNA transfection as previously described. Cell viability was calculated as the average absorbance of the drug treated cells divided by the average absorbance of the vehicle treated cells × 100.
as §4
Cells were plated at a density of 2000 cells per well. c, MCF7AC1 cells were treated with vehicle control or 0.01, 0.1 and 5 µM MK-2206 in CSS medium for 24 hours. […] Cell viability is assessed by the crystal violet assay. f, Parental T47D and T47D-LTED cells were processed for protein lysates. […] Cell viability is assessed by the crystal violet assay. h, T47D-LTED cells were co-treated with vehicle control or 0.01, 0.1 and 5 µM MK -2206 and IncuCyte Annexin V green and NucLight rapid red reagents in CSS medium for 48 hours. […] Cell viability is assessed by the crystal violet assay. […]

MCF7AC1 cells [10] = test: Crystal violet cell viability / proliferation assay, MCF7AC1; format: cell-based, human; details: estrogen deprived (CSS), six days
Procedure: Fig. 1 Z-endoxifen (ENDX) effects on cell viability and apoptosis in estrogen deprived ERα+ /HER2- MCF7AC1 cells. a Cells grown in CSS medium were treated with vehicle control or the indicated ENDX concentrations for […]. Cell viability was assessed by the crystal violet assay. b Cells were co-treated with vehicle control or the indicated ENDX concentrations, IncuCyte Annexin V green and NucLight red reagents in CSS medium for 48 h. […] Data represents the mean of six wells per treatment performed as biological duplicates ± s.d. **p ≤ 0.01; ***p ≤ 0.001; ****p ≤ 0.0001 by one-way ANOVA.
as §5

[11] = ERα+ breast cancer patients receiving 20 mg/day TAM monotherapy; cited from earlier work

CCCCCCCCCCCCCC(=O)O[C@@H]1[C@@H](C)[C@@]2(O)[C@@H](C=C(CO)C[C@]3(O)C(=O)C(C)=C[C@@H]23)[C@@H]2C(C)(C)[C@]12OC(C)=O [PMA, phorbol 12-myristate 13-acetate, reference compound]
Effect of PKC agonist on PKCβ1^Ser661 and AKT^Ser473 phosphorylation (PKCβ1 in MCF7AC1 cells [1]; 20 and 200 nM, 20 min): stimulated PKCβ1^Ser661 auto-phosphorylation and AKT^Ser473 phosphorylation

Cn1cc(C2=C(c3cn(C4CCN(Cc5ccccn5)CC4)c4ccccc34)C(=O)NC2=O)c2ccccc21 [enzastaurin]
Effect on PKCβ1 expression (PKCβ1 in MCF7AC1 cells [2]): neither impacted the expression of PKCβ1
Effect on PMA-stimulated PKCβ1^Ser661 phosphorylation (PKCβ1 in MCF7AC1 cells [2]): reduced PKCβ1^Ser661 phosphorylation

CC/C(=C(\c1ccccc1)c1ccc(OCCN(C)C)cc1)c1ccccc1 [TAM, tamoxifen, reference compound]
Effect on insulin-stimulated AKT^Ser473 and AKT^Thr308 phosphorylations ([3]; serum starved): failed to inhibit insulin-stimulated AKT^Ser473 and AKT^Thr308 phosphorylations
PFS in CDK4/6 inhibitor naïve patients ([4]; CDK4/6i naïve): 2.4 m
Progression free survival (PFS) overall ([4]; women with ERα+/HER2- metastatic breast cancer progressed on endocrine therapy): 1.8 m
Effect on apoptosis (MCF7AC1 cells [5]): failed to induce apoptosis
Effect on PKCβ1 total protein in insulin treated cells (PKCβ1 in MCF7AC1 cells [1]): failed to diminish PKCβ1 total protein expression
Effect on insulin-stimulated AKT^Ser473 phosphorylation [6]: failing to block insulin-stimulated AKT^Ser473 phosphorylation

Insulin: known activator of AKT^Ser473 phosphorylation (Sigma-Aldrich)
Effect on AKT^Ser473 phosphorylation ([3]; serum starved, 100 nM, 1 h): robustly stimulated AKT^Ser473 phosphorylation

NC1(c2ccc(-c3nc4ccn5c(=O)[nH]nc5c4cc3-c3ccccc3)cc2)CCC1 [MK-2206, reference compound]
Concentrations increasing apoptosis (annexin V staining, PARP cleavage) (T47D-LTED cells [7]): ≥ 1 µM
Concentrations reducing AKT^Ser473 phosphorylation [8]: ≥ 1 µM
Concentrations at which AKT^Ser473 phosphorylation was reduced ([3]; estrogen deprived (CSS), 24 h): ≥ 1 µM
Concentration at which apoptosis (annexin V binding and PARP1 cleavage) was induced (MCF7AC1 cells [5]; estrogen deprived (CSS)): 5 µM
Concentration from which growth was significantly inhibited (T47D-LTED cells [9]): ≥ 0.1 µM
Concentrations at which growth was inhibited (MCF7AC1 cells [10]): ≥ 0.1 µM

C[C@]12CC[C@@H]3c4ccc(O)cc4C[C@@H](CCCCCCCCC[S+]([O-])CCCC(F)(F)C(F)(F)F)[C@H]3[C@@H]1CC[C@@H]2O (stereo partly drawn) [ICI, ICI-182780, reference compound]
Effect on insulin-stimulated AKT^Ser473 and AKT^Thr308 phosphorylations ([3]; serum starved): failed to inhibit insulin-stimulated AKT^Ser473 and AKT^Thr308 phosphorylations
Effect on apoptosis (MCF7AC1 cells [5]): failed to induce apoptosis
Effect on PKCβ1 total protein in insulin treated cells (PKCβ1 in MCF7AC1 cells [1]): failed to diminish PKCβ1 total protein expression
Effect on insulin-stimulated AKT^Ser473 phosphorylation [6]: failing to block insulin-stimulated AKT^Ser473 phosphorylation

CC/C(=C(\c1ccc(O)cc1)c1ccc(OCCN(C)C)cc1)c1ccccc1 [4-HT]
Clinically attainable serum concentration [11]: < 5 nM
